Molecular target: T1, tubulin
T1 construct: purified tubulin (alpha/beta heterodimer)
Assay: tryptophan fluorescence quenching titration; competition with BODIPY FL-vinblastine (Ki […])
Type: binding

**Q.** How did the Kd turn out when O=C1NC(=S)S/C1=C\c1ccc(-c2ccc(Br)c(Cl)c2)o1 [BCFMT, (Z)-5-((5-(4-bromo-3-chlorophenyl)furan-2-yl)methylene)-2-thioxothiazolidin-4-one] was run?
**A.** 8.3 ± 1.8 µM
